Laboratory results from patent US20120034193A1, “TREATMENT OF NEUROTROPHIC FACTOR MEDIATED DISORDERS” (priority 2009, published 2012).

Key:
Test in all cases: Binding assay
Settings in all cases: smilagenin 1 μM
Dopamine D2S = Dopamine D2S (Homo sapiens, UniProt P14416)
Method in brief: (§1)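 Known radioligand concentration, receptor homogenate, compound fixed at 1 μM. Read-out: specific binding after free-label removal, converted to percent inhibition relative to untreated binding.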

Neuropeptide Y Y2 = Neuropeptide Y Y2 (Homo sapiens, UniProt P49146)
Method in brief: as §1

Adensonine A3 = Adensonine A3 (Homo sapiens, UniProt P0DMS8)
Method in brief: as §1

Muscarinic M2 = target: T1, Muscarinic M2 (Homo sapiens, UniProt P08172)
T1 construct: host or cells: tissue or cell homogenate, not specified
Method in brief: as §1

Anaphylatoxin C5a = Anaphylatoxin C5a (Homo sapiens, UniProt P21730)
Method in brief: as §1

[1] = target: T2, G Protein-Coupled Receptor GPR8 (Homo sapiens, UniProt P48146)
T2 construct: host or cells: tissue or cell homogenate (not specified)
Method in brief: as §1

Dopamine D4.2 = Dopamine D4.2 (Homo sapiens, UniProt P21917, DEL265-296)
Method in brief: as §1

Muscarinic M4 = target: T3, Muscarinic M4 (Homo sapiens, UniProt P08173)
T3 construct: host or cells: tissue or cell homogenate, not specified
Method in brief: as §1

[2] = target: T4, Growth Hormone Secretagogue (GHS, Ghrelin) (Homo sapiens, UniProt Q92847)
T4 construct: host or cells: tissue or cell homogenate (not specified)
Method in brief: as §1

Neuromedin U MNU1 = Neuromedin U MNU1 (Homo sapiens, UniProt Q9HB89)
Method in brief: as §1

Leukotriene, BLT (LTB4) = Leukotriene, BLT (LTB4) (Homo sapiens, UniProt Q15722)
Method in brief: as §1

GABAB1B = target: T5, GABAB1B (Homo sapiens, UniProt Q9UBS5)
T5 construct: host or cells: tissue or cell homogenate (not specified)
Method in brief: as §1

Chemokine CCR5 = Chemokine CCR5 (Homo sapiens, UniProt P51681)
Method in brief: as §1

Potassium Channel HERG = Potassium Channel HERG (Homo sapiens, UniProt Q12809)
Method in brief: as §1

Calcitonin = Calcitonin (Homo sapiens, UniProt P30988)
Method in brief: as §1

Vasopressin V1A = target: T6, Vasopressin V1A (Homo sapiens, UniProt P37288)
T6 construct: host or cells: tissue or cell homogenate, not specified
Method in brief: as §1

[3] = target: T7, Epidermal Growth Factor (EGF) (Homo sapiens, UniProt P00533)
T7 construct: host or cells: tissue or cell homogenate (not specified)
Method in brief: as §1

Interleukin IL-2 = Interleukin IL-2 (Mus musculus, UniProt P01590)
Method in brief: as §1

Glutamate, NMDA, Glycine = target: T8, Glutamate, NMDA, Glycine (Rattus norvegicus, UniProt P35439)
T8 construct: host or cells: tissue or cell homogenate (not specified)
Method in brief: as §1

Adrenergic α1B = Adrenergic α1B (Rattus norvegicus, UniProt P15823)
Method in brief: as §1

[4] = target: T9, Vasoactive Intestinal Peptide, VIP1 (Homo sapiens, UniProt P32241)
T9 construct: host or cells: tissue or cell homogenate, not specified
Method in brief: as §1

Neuromedin U MNU2 = Neuromedin U MNU2 (Homo sapiens, UniProt Q9GZQ4)
Method in brief: as §1

[5] = target: 5-Hydroxytryptamine, 5-HT1A (Homo sapiens, UniProt P08908)
Method in brief: as §1

Prostanoid CRTH2 = Prostanoid CRTH2 (Homo sapiens, UniProt Q9Y5Y4)
Method in brief: as §1

[6] = target: Prostanoid Thromboxane A2 (TP) (Homo sapiens, UniProt P21731)
Method in brief: as §1

[7] = target: T10, Transporter, Norepinephrine (NET) (Homo sapiens, UniProt P23975)
T10 construct: host or cells: tissue or cell homogenate, not specified
Method in brief: as §1

Adrenergic β1 = Adrenergic β1 (Homo sapiens, UniProt P08588)
Method in brief: as §1

Tachykinin NK1 = Tachykinin NK1 (Homo sapiens, UniProt P25103)
Method in brief: as §1

Bombesin BB2 = Bombesin BB2 (Homo sapiens, UniProt P30550)
Method in brief: as §1

Urotensin II = target: T11, Urotensin II (Homo sapiens, UniProt Q9UKP6)
T11 construct: host or cells: tissue or cell homogenate, not specified
Method in brief: as §1

[8] = target: T12, G Protein-Coupled Receptor GPR 103 (Homo sapiens, UniProt Q96P65)
T12 construct: host or cells: tissue or cell homogenate (not specified)
Method in brief: as §1

Somatostatin sst4 = Somatostatin sst4 (Homo sapiens, UniProt P31391)
Method in brief: as §1

Erythropoietin EPOR = target: T13, Erythropoietin EPOR (Homo sapiens, UniProt P19235)
T13 construct: host or cells: tissue or cell homogenate (not specified)
Method in brief: as §1

Endothelin ETA = Endothelin ETA (Homo sapiens, UniProt P25101)
Method in brief: as §1

[9] = target: 5-Hydroxytryptamine, 5-HT2B (Homo sapiens, UniProt P41595)
Method in brief: as §1

Dopamine D5 = Dopamine D5 (Homo sapiens, UniProt P21918)
Method in brief: as §1

Sequence of 5-Hydroxytryptamine, 5-HT1A (P08908 whole entry): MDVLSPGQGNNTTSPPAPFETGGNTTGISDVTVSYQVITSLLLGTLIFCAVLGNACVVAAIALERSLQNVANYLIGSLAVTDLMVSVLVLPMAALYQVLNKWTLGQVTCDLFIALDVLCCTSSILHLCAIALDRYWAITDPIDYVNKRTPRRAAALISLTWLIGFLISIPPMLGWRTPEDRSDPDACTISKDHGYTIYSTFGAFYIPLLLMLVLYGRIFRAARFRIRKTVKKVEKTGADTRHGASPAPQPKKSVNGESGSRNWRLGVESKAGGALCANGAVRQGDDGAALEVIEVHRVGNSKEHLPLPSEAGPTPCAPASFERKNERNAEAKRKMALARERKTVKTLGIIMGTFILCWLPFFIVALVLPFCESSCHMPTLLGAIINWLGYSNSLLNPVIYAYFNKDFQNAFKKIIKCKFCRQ
Sequence of Prostanoid Thromboxane A2 (TP) (P21731 whole entry): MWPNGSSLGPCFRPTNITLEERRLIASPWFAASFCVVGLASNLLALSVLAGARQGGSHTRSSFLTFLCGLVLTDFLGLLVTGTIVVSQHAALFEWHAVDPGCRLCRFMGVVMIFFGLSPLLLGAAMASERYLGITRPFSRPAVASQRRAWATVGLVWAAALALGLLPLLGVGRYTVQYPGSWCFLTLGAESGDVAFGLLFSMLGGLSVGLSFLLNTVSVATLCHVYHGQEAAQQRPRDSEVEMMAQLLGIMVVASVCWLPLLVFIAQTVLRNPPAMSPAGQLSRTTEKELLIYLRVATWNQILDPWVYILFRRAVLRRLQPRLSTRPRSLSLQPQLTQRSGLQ
Sequence of Neuromedin U MNU1 (Q9HB89 whole entry): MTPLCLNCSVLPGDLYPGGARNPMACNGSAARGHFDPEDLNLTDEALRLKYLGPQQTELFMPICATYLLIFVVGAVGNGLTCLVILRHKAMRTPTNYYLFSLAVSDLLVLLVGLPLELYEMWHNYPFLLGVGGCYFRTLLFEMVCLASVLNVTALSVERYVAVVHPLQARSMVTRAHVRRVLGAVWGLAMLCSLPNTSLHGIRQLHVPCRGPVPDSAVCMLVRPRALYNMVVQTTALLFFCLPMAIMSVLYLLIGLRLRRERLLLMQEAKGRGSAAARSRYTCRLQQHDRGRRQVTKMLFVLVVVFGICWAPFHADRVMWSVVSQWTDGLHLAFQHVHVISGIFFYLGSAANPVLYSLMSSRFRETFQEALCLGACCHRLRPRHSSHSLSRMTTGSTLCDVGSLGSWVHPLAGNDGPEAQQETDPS
Sequence of 5-Hydroxytryptamine, 5-HT2B (P41595 whole entry): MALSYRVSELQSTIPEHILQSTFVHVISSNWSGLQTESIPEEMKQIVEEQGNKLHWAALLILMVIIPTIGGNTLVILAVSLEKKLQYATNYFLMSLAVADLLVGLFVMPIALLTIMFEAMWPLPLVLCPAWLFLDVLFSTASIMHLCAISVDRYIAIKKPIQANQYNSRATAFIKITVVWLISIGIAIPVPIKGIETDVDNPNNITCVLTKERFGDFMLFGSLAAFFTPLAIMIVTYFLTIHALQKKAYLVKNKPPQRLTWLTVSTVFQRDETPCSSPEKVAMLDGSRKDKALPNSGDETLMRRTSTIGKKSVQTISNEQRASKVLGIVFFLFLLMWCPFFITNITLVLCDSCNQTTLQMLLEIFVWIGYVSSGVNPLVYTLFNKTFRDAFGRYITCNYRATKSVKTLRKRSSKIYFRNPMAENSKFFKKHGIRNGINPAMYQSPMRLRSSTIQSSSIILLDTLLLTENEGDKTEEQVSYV
Sequence of Adensonine A3 (P0DMS8 whole entry): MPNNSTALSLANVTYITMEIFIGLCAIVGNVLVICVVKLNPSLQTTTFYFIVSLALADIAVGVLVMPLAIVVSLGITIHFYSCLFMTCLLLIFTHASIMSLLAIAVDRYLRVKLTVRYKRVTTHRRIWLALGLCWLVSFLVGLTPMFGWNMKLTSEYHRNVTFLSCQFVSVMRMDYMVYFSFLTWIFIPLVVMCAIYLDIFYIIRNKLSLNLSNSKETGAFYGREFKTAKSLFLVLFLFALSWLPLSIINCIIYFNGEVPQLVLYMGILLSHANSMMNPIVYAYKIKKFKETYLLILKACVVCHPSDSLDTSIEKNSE
Sequence of Bombesin BB2 (P30550 whole entry): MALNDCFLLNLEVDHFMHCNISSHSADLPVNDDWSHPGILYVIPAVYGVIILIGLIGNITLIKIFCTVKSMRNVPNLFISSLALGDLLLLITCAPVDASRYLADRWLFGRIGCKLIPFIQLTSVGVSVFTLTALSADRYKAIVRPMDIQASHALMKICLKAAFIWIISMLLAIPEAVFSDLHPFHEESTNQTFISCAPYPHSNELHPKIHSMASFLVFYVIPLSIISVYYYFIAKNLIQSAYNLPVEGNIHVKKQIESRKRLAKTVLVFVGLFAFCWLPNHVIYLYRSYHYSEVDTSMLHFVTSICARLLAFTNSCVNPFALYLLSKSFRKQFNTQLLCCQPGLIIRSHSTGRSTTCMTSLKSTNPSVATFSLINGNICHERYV
T10 sequence (P23975 whole entry): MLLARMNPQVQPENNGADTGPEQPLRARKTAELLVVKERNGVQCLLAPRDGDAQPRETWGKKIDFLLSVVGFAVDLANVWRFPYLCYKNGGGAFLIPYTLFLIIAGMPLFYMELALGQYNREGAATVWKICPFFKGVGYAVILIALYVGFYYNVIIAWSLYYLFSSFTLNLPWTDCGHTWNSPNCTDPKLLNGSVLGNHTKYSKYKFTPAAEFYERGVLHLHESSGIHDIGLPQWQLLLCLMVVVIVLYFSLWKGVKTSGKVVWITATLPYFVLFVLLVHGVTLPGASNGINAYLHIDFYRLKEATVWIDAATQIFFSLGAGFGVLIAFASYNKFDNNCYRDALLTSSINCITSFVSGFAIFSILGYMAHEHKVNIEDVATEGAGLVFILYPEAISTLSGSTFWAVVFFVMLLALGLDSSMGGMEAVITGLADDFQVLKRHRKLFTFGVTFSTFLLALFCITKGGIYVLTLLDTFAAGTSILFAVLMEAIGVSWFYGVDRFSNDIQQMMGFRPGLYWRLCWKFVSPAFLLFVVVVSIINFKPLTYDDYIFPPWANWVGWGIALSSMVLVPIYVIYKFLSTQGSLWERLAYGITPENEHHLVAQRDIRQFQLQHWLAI
Sequence of Anaphylatoxin C5a (P21730 whole entry): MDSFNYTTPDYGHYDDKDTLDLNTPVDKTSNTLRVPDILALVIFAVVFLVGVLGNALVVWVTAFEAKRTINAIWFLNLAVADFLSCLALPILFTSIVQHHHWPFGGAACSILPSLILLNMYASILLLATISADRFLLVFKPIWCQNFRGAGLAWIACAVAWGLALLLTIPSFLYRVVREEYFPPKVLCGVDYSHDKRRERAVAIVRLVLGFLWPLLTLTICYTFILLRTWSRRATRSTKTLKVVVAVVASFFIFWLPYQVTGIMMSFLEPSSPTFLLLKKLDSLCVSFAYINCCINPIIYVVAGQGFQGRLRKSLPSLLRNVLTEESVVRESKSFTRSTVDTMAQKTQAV
Sequence of Dopamine D4.2 (P21917 with tags, fused parts or gaps DEL265-296): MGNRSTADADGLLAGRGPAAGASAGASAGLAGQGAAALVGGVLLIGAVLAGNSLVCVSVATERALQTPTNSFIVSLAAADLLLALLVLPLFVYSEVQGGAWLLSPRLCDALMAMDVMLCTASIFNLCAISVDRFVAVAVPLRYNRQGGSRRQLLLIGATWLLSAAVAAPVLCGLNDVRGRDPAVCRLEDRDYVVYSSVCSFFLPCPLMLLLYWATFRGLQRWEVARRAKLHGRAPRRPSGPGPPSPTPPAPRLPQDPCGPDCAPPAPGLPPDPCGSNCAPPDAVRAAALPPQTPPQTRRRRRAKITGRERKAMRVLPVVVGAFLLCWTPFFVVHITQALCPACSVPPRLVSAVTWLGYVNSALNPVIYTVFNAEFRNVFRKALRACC
Sequence of Endothelin ETA (P25101 21-427): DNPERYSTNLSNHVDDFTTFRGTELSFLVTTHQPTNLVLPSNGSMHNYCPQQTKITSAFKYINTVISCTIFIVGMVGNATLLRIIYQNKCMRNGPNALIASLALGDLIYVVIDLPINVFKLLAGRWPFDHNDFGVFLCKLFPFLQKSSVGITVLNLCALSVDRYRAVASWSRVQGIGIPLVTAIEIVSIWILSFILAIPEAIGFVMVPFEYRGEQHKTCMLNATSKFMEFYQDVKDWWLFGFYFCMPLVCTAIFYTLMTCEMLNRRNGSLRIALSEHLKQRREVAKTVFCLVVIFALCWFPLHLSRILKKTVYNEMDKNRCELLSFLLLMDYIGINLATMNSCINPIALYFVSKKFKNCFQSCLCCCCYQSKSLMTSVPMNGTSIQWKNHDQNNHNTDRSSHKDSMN
Sequence of Somatostatin sst4 (P31391 whole entry): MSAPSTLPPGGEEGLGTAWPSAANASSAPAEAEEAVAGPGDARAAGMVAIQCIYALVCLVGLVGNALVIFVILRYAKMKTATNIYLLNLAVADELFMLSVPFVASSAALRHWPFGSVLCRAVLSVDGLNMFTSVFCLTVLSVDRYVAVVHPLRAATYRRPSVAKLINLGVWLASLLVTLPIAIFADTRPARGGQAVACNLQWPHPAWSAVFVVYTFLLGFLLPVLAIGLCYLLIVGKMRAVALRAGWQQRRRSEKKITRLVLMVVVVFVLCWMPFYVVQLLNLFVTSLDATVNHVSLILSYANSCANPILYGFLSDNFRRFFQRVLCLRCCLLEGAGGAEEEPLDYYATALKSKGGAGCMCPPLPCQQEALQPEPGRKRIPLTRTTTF
Sequence of Dopamine D2S (P14416 1-414 isoform P14416-2): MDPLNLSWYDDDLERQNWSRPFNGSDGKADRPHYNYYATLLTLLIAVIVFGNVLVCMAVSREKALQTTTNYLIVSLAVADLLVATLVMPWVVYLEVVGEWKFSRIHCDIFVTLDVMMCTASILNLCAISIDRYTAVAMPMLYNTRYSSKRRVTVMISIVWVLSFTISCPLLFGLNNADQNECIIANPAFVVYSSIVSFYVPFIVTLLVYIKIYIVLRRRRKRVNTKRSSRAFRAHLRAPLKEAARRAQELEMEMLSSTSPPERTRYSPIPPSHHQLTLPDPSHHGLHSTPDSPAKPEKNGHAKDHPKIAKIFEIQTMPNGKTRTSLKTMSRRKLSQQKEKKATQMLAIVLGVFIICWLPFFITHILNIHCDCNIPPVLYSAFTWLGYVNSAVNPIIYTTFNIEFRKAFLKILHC

C[C@@H]1CC[C@@]2(OC1)O[C@H]1C[C@H]3[C@@H]4CC[C@@H]5C[C@@H](O)CC[C@]5(C)[C@H]4CC[C@]3(C)[C@H]1[C@@H]2C [Smilagenin, smilagenin]
Effect (%) (Dopamine D2S): NS (NS = No significant response. Significance was taken as ≧30% stimulation or inhibition) | Effect (%) (Neuropeptide Y Y2): NS (NS = No significant response. Significance was taken as ≧30% stimulation or inhibition) | Effect (%) (Adensonine A3): NS (NS = No significant response. Significance was taken as ≧30% stimulation or inhibition) | Effect (%) (Muscarinic M2): NS (NS = No significant response. Significance was taken as ≧30% stimulation or inhibition) | Effect (%) (Anaphylatoxin C5a): NS (NS = No significant response. Significance was taken as ≧30% stimulation or inhibition) | Effect (%) [1]: NS (NS = No significant response. Significance was taken as ≧30% stimulation or inhibition) | Effect (%) (Dopamine D4.2): NS (NS = No significant response. Significance was taken as ≧30% stimulation or inhibition) | Effect (%) (Muscarinic M4): NS (NS = No significant response. Significance was taken as ≧30% stimulation or inhibition) | Effect (%) [2]: NS (NS = No significant response. Significance was taken as ≧30% stimulation or inhibition) | Effect (%) (Neuromedin U MNU1): NS (NS = No significant response. Significance was taken as ≧30% stimulation or inhibition) | Effect (%) (Leukotriene, BLT (LTB4)): NS (NS = No significant response. Significance was taken as ≧30% stimulation or inhibition) | Effect (%) (GABAB1B): NS (NS = No significant response. Significance was taken as ≧30% stimulation or inhibition) | Effect (%) (Chemokine CCR5): NS (NS = No significant response. Significance was taken as ≧30% stimulation or inhibition) | Effect (%) (Potassium Channel HERG): NS (NS = No significant response. Significance was taken as ≧30% stimulation or inhibition) | Effect (%) (Calcitonin): NS (NS = No significant response. Significance was taken as ≧30% stimulation or inhibition) | Effect (%) (Vasopressin V1A): NS (NS = No significant response. Significance was taken as ≧30% stimulation or inhibition) | Effect (%) [3]: NS (NS = No significant response. Significance was taken as ≧30% stimulation or inhibition) | Effect (%) (Interleukin IL-2): NS (NS = No significant response. Significance was taken as ≧30% stimulation or inhibition) | Effect (%) (Glutamate, NMDA, Glycine): NS (NS = No significant response. Significance was taken as ≧30% stimulation or inhibition) | Effect (%) (Adrenergic α1B): NS (NS = No significant response. Significance was taken as ≧30% stimulation or inhibition) | Effect (%) [4]: NS (NS = No significant response. Significance was taken as ≧30% stimulation or inhibition) | Effect (%) (Neuromedin U MNU2): NS (NS = No significant response. Significance was taken as ≧30% stimulation or inhibition) | Effect (%) [5]: NS (NS = No significant response. Significance was taken as ≧30% stimulation or inhibition) | Effect (%) (Prostanoid CRTH2): NS (NS = No significant response. Significance was taken as ≧30% stimulation or inhibition) | Effect (%) [6]: NS (NS = No significant response. Significance was taken as ≧30% stimulation or inhibition) | Effect (%) [7]: NS (NS = No significant response. Significance was taken as ≧30% stimulation or inhibition) | Effect (%) (Adrenergic β1): NS (NS = No significant response. Significance was taken as ≧30% stimulation or inhibition) | Effect (%) (Tachykinin NK1): NS (NS = No significant response. Significance was taken as ≧30% stimulation or inhibition) | Effect (%) (Bombesin BB2): NS (NS = No significant response. Significance was taken as ≧30% stimulation or inhibition) | Effect (%) (Urotensin II): NS (NS = No significant response. Significance was taken as ≧30% stimulation or inhibition) | Effect (%) [8]: NS (NS = No significant response. Significance was taken as ≧30% stimulation or inhibition) | Effect (%) (Somatostatin sst4): NS (NS = No significant response. Significance was taken as ≧30% stimulation or inhibition) | Effect (%) (Erythropoietin EPOR): NS (NS = No significant response. Significance was taken as ≧30% stimulation or inhibition) | Effect (%) (Endothelin ETA): NS (NS = No significant response. Significance was taken as ≧30% stimulation or inhibition) | Effect (%) [9]: NS (NS = No significant response. Significance was taken as ≧30% stimulation or inhibition) | Effect (%) (Dopamine D5): NS (NS = No significant response. Significance was taken as ≧30% stimulation or inhibition)
